Values quoted from earlier work in patent publication US6369078B1, “Solenopsin derivatives and analogues as fire ant suppressants” (priority 1999, dated 2002).

Columns and labels:
[1] = as much as 6000 units over a shorter time period
[2] = tested on: blood and tissue- and fluid-feeding parasites
fire ants = settings: stomach insecticide combined with bait

SMILES	ill effects [1]	units equivalent to 250 units of the whole body extracts ([2]; synthetic version against whole body extract)	elimination of blood and tissue- and fluid-feeding parasites ([2]; synthetically produced, oral)	effectiveness against fire ants (fire ants)
CCCCCCCCCCC[C@H]1CCC[C@H](C)N1 (relative stereo) [Solenopsin A, trans-2-methyl 6-n-undecylpiperidine]	did not cause any ill effects	1500 units	complete elimination	
ClC1(Cl)C2(Cl)C3(Cl)C4(Cl)C(Cl)(Cl)C5(Cl)C3(Cl)C1(Cl)C5(Cl)C24Cl (stereo not shown) [Mirex]				more than 95%
